This test has as its target T1, AsPC-1 HiBiT-KRASG12D (Homo sapiens, UniProt P01116, G12D).
T1 construct: insert the HiBiT tag onto the N-terminus of one or more of the endogenous KRAS alleles; endogenous in cells; host or cells: AsPC-1 (ATCC CRL-1682), CRISPR-Cas9 knock-in clone, one tagged allele
Nature of the test: HiBiT degradation assay (G12D), AsPC-1 HiBiT-KRASG12D cells. The class given is cell-based. To be noted: 24 hours treatment; for Dmax: ASPC1, AsPC-1 HiBiT-KRASG12D cells; for Dmax / AsPC-1 HiBiT-KRASG12D DMax: maximum degradation observed; for DC50 / AsPC-1 HiBiT-KRASG12D DMax: AsPC-1 HiBiT-KRASG12D cells; for DC50: HiBiT luminescence. The essentials: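 Luminescence read-out of HiBiT-tagged endogenous KRASG12D in AsPC-1 cells after 24 h compound exposure at 37° C; lytic Nano-Glo HiBiT detection, 45 min at room temperature. A parallel alamar blue read (4 h) checked viability, normalized to DMSO-only controls.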
Background: HiBiT is a short tag that completes a luciferase, so light tracks the accessible tagged protein.

Each structure is given as a SMILES string.

T1 sequence (P01116 1-188 isoform P01116-2 G12D): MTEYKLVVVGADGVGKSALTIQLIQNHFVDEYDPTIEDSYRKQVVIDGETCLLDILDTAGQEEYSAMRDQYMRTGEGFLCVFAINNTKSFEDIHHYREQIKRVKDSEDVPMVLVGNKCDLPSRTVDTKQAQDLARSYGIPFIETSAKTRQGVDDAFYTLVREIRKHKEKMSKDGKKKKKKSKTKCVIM

Turning to `CCc1cccc2cc(O)cc(-c3ncc4c(N5CC6CCC(C5)N6)nc(OC[C@@]56CCCN5[C@H](COC(=O)N5CCN(c7cc([C@H](C(=O)N8C[C@H](O)C[C@H]8C(=O)N[C@@H](C)c8ccc(-c9scnc9C)cc8)C(C)C)on7)[C@H](C)C5)CC6)nc4c3F)c12` [Compound 327, [(3S,8S)-8-[[4-(3,8-diazabicyclo[3.2.1]octan-3-yl)-7-(8-ethyl-3-hydroxy-1-naphthyl)-8-fluoro-pyrido[4,3-d]pyrimidin-2-yl]oxymethyl]-1,2,3,5,6,7-hexahydropyrrolizin-3-yl]methyl (3R)-4-[5-[(1R)-1-[(2S,4R)-4-hydroxy-2-[[(1S)-1-[4-(4-methylthiazol-5-yl)phenyl]ethyl]carbamoyl]pyrrolidine-1-carbonyl]-isobutyl]isoxazol-3-yl]-3-methyl-piperazine-1-carboxylate], the Dmax – broadly, the greatest extent of degradation seen – lay in the range of 80 to 100% and the half-maximal degradation concentration (DC50) (as a rule, the concentration giving 50% degradation) is less than 600 nM.

As for `CCc1cccc2cc(O)cc(-c3ncc4c(N5CC6CCC(C5)N6)nc(OCCN5CCC(F)(CN6CCN(c7cc([C@@H](C(=O)N8C[C@H](O)C[C@H]8C(=O)N[C@@H](C)c8ccc(-c9ccnn9C)cc8)C(C)C)on7)CC6)CC5)nc4c3F)c12` [Compound 197, (2S,4R)-1-[(2S)-2-(3-{4-[(1-{2-[(4-{3,8-diazabicyclo[3.2.1]octan-3-yl}-7-(8-ethyl-3-hydroxynaphthalen-1-yl)-8-fluoropyrido[4,3-d]pyrimidin-2-yl)oxy]ethyl}-4-fluoropiperidin-4-yl)methyl]piperazin-1-yl}-1,2-oxazol-5-yl)-3-methylbutanoyl]-4-hydroxy-N-[(1S)-1-[4-(1-methyl-1H-pyrazol-5-yl)phenyl]ethyl] pyrrolidine-2-carboxamide], the Dmax is less than 20% and the DC50 is 1000 to 3000 nM.

For the molecule `CCc1cccc2cc(O)cc(-c3ncc4c(N5CC6CCC(C5)N6)nc(OCCN5CCC(CC6CCN(c7cc(C(C(=O)N8C[C@H](O)C[C@H]8C(=O)N[C@@H](C)c8ccc(-c9scnc9C)cc8)C(C)C)on7)CC6)CC5)nc4c3F)c12` (single isomer, unassigned) [Compound 321], the half-maximal degradation concentration (DC50) lay in the range of 600 to 1000 nM and the “AsPC-1 HiBiT-KRASG12D DMax” value is “C (20% <C ≤ 60%)”.

The molecule `CCc1cccc2cc(O)cc(-c3ncc4c(N5CC6CCC(C5)N6)nc(OCCN5CC[C@@H]6CN(c7cc([C@H](C(=O)N8C[C@H](O)C[C@H]8C(=O)N[C@@H](C)c8ccc(-c9scnc9C)cc8)C(C)C)on7)C[C@@H]6C5)nc4c3F)c12` (relative stereo) [Compound 71, (2S,4R)-1-[(2R*)-2-{3-[(3aR**,7aR***)-5-{2-[(4-{3,8-diazabicyclo[3.2.1]octan-3-yl}-7-(8-ethyl-3-hydroxynaphthalen-1-yl)-8-fluoropyrido[4,3-d]pyrimidin-2-yl)oxy]ethyl}-octahydro-1H-pyrrolo[3,4-c]pyridin-2-yl]-1,2-oxazol-5-yl}-3-methylbutanoyl]-4-hydroxy-N-[(1S)-1-[4-(4-methyl-1,3-thiazol-5-yl)phenyl]ethyl]pyrrolidine-2-carboxamide] came in with a Dmax of 80 to 100% and a DC50 of less than 600 nM.

For `Cc1ncsc1-c1ccc([C@H](C)NC(=O)[C@@H]2C[C@@H](O)CN2C(=O)[C@H](c2cc(OC[C@@H]3CC[C@]4(COc5nc(N6CC7CCC(C6)N7)c6cnc(-c7cccc8ccc(F)c(F)c78)c(F)c6n5)CCCN34)no2)C(C)C)cc1` [Compound 62, (2S,4R)-1-[(2S)-2-(3-{[(3S,7aS)-7a-{[(4-{3,8-diazabicyclo[3.2.1]octan-3-yl}-7-(7,8-difluoronaphthalen-1-yl)-8-fluoropyrido[4,3-d]pyrimidin-2-yl)oxy]methyl}-hexahydro-1H-pyrrolizin-3-yl]methoxy}-1,2-oxazol-5-yl)-3-methylbutanoyl]-4-hydroxy-N-[(1S)-1-[4-(4-methyl-1,3-thiazol-5-yl)phenyl]ethyl]pyrrolidine-2-carboxamide], the DC50 was greater than 3000 nM.

`CCc1cccc2cc(O)cc(-c3ncc4c(N5CC6CCC(C5)N6)nc(OCCN5CCC6(CC5)CN(c5cc([C@@H](C(=O)N7C[C@H](O)C[C@H]7C(=O)N[C@@H](C)c7ccc(-c8ccnn8C)cc7)C(C)C)on5)C6)nc4c3F)c12` (relative stereo) [Compound 141, (2S,4R)-1-[(2R*)-2-[3-(7-{2-[(4-{3,8-diazabicyclo[3.2.1]octan-3-yl}-7-(8-ethyl-3-hydroxynaphthalen-1-yl)-8-fluoropyrido[4,3-d]pyrimidin-2-yl)oxy]ethyl}-2,7-diazaspiro[3.5]nonan-2-yl)-1,2-oxazol-5-yl]-3-methylbutanoyl]-4-hydroxy-N-[(1S)-1-[4-(1-methyl-1H-pyrazol-5-yl)phenyl]ethyl]pyrrolidine-2-carboxamide] registered a Dmax of 20 to 60% and a DC50 of 1000 to 3000 nM.

As for `C#Cc1c(F)ccc2cc(O)cc(-c3ncc4c(N5CC6CCC(C5)N6)nc(OCCN5CCC(C6CN(c7cc([C@H](C(=O)N8C[C@H](O)C[C@H]8C(=O)N[C@@H](C)c8ccc(-c9scnc9C)cc8)C(C)C)on7)C6)CC5)nc4c3F)c12` [Compound 185], the Dmax fell in the range of 80 to 100% and the DC50 was less than 600 nM.

Consider `C#Cc1c(F)ccc2cc(O)cc(-c3ncc4c(N5CC6CCC(C5)N6)nc(OCCN5CCC(CC6CN(c7cc([C@H](C(=O)N8C[C@H](O)C[C@H]8C(=O)N[C@@H](C)c8ccc(-c9scnc9C)cc8)C(C)C)on7)C6)CC5)nc4c3F)c12` (single isomer, unassigned) [Compound 288], for which the Dmax lay in the range of 80 to 100% and the half-maximal degradation concentration (DC50) was less than 600 nM.

Take `CCc1cccc2cc(O)cc(-c3ncc4c(N5CCCCCC5)nc(OC[C@]56CCCN5[C@H](COc5cc([C@H](C(=O)N7C[C@H](O)C[C@H]7C(=O)N[C@@H](C)c7ccc(-c8scnc8C)cc7)C(C)C)on5)CC6)nc4c3F)c12` [Compound 208, (2S,4R)-1-[(2R)-2-(3-{[(3S,7aR)-7a-({[4-(azepan-1-yl)-7-(8-ethyl-3-hydroxynaphthalen-1-yl)-8-fluoropyrido[4,3-d]pyrimidin-2-yl]oxy}methyl)-hexahydro-1H-pyrrolizin-3-yl]methoxy}-1,2-oxazol-5-yl)-3-methylbutanoyl]-4-hydroxy-N-[(1S)-1-[4-(4-methyl-1,3-thiazol-5-yl)phenyl]ethyl]pyrrolidine-2-carboxamide]: the Dmax fell in the range of 80 to 100% and the DC50 was less than 600 nM.

For the molecule `CCc1cccc2cc(O)cc(-c3ncc4c(N5CC6CCC(C5)N6)nc(OCCN5CCC(CC6CN(c7cc([C@@H](C(=O)N8C[C@H](O)C[C@H]8C(=O)N[C@@H](C)c8ccc(-c9ccnn9C)cc8)C(C)C)on7)C6)CC5)nc4c3F)c12` (single isomer, unassigned) [Compound 265, (2S,4R)-1-[(2R*)-2-(3-{3-[(1-{2-[(4-{3,8-diazabicyclo[3.2.1]octan-3-yl}-7-(8-ethyl-3-hydroxynaphthalen-1-yl)-8-fluoropyrido[4,3-d]pyrimidin-2-yl)oxy]ethyl}piperidin-4-yl)methyl]azetidin-1-yl}-1,2-oxazol-5-yl)-3-methylbutanoyl]-4-hydroxy-N-[(1S)-1-[4-(1-methyl-1H-pyrazol-5-yl)phenyl]ethyl]pyrrolidine-2-carboxamide], the Dmax is 60 to 80% and the DC50 is 1000 to 3000 nM.

Molecule `CCc1cccc2cc(O)cc(-c3ncc4c(N5CC6CCC(C5)N6)nc(OCCN5CCC(F)(CN6CCN(c7cc([C@H](C(=O)N8C[C@H](O)C[C@H]8C(=O)N[C@@H](C)c8ccc(-c9scnc9C)cc8)C(C)C)on7)CC6)CC5)nc4c3F)c12` [Compound 262] yielded a Dmax of 80 to 100% and a DC50 of less than 600 nM.

On to `CCc1cccc2cccc(-c3ncc4c(N5CC6CCC(C5)N6C(=O)OC(C)(C)C)nc(OC[C@]56CCCN5[C@H](COC(=O)N5CCN(c7cc([C@H](C(=O)N8C[C@H](O)C[C@H]8C(=O)N[C@@H](C)c8ccc(-c9scnc9C)cc8)C(C)C)on7)[C@H](C)C5)CC6)nc4c3F)c12` [Compound 226, tert-butyl 3-[7-(8-ethyl-1-naphthyl)-8-fluoro-2-[[(3S,8R)-3-[[(3R)-4-[5-[(1R)-1-[(2S,4R)-4-hydroxy-2-[[(1S)-1-[4-(4-methylthiazol-5-yl)phenyl]ethyl]carbamoyl]pyrrolidine-1-carbonyl]-2-methyl-propyl]isoxazol-3-yl]-3-methyl-piperazine-1-carbonyl]oxymethyl]-1,2,3,5,6,7-hexahydropyrrolizin-8-yl]methoxy]pyrido[4,3-d]pyrimidin-4-yl]-3,8-diazabicyclo[3.2.1]octane-8-carboxylate], for which the DC50 is less than 600 nM and the “AsPC-1 HiBiT-KRASG12D DMax” value is given as “A (80% < A ≤ 100%)”.

`CCc1cccc2cc(O)cc(-c3ncc4c(N5CC6CCC(C5)N6)nc(OCCN5CCC(CN6CC(Oc7cc([C@H](C(=O)N8C[C@H](O)C[C@H]8C(=O)N[C@@H](C)c8ccc(-c9scnc9C)cc8)C(C)C)on7)C6)CC5)nc4c3F)c12` [Compound 244, (2S,4R)-1-[(2R)-2-[3-({1-[(1-{2-[(4-{3,8-diazabicyclo[3.2.1]octan-3-yl}-7-(8-ethyl-3-hydroxynaphthalen-1-yl)-8-fluoropyrido[4,3-d]pyrimidin-2-yl)oxy]ethyl}piperidin-4-yl)methyl]azetidin-3-yl}oxy)-1,2-oxazol-5-yl]-3-methylbutanoyl]-4-hydroxy-N-[(1S)-1-[4-(4-methyl-1,3-thiazol-5-yl)phenyl]ethyl] pyrrolidine-2-carboxamide] returned a maximal degradation (Dmax) of 80 to 100% and a half-maximal degradation concentration (DC50) of less than 600 nM.

Source of the values: US20250206732A1, “COMPOUNDS AND METHODS FOR THE TARGETED DEGRADATION OF KRAS” (Arvinas Operations, Inc., priority 2022, published 2025).
